Laboratory results published in ChEMBL document CHEMBL3885861, “Open TG-GATES”.

Species on record: Rattus norvegicus
Experiment: Open TG-GATES - Regimen: Daily Repeat
Assay type: toxicity, organism-based, Sprague-Dawley
Design: regimen Daily Repeat, gender Male, age 6 weeks
Settings: in vivo, po, route gavage; for KIDNEY_L / KIDNEY_R / KIDNEY_TOTAL: tissue Kidney; for ALP / ALT / AST / BUN / CRE / Ca / Cl / DBIL / GLC / IP / K / LDH / Na / PL / RALB / TBIL / TC / TG / TP / gamma-GTP: tissue Plasma
[1] = 45 mg/kg, […], tissue Blood, dose level Low, time 28 day
[2] = 45 mg/kg, […], dose level Low, time 7 day
[3] = 45 mg/kg, […], dose level Low, time 14 day
[4] = 45 mg/kg, […], dose level Low, time 28 day

CC(=O)Oc1ccccc1C(=O)O [ASPIRIN] was tested, and the Ht [1] was 44.6%, the Lym [1] was 80.4% and the MCH [1] was 19.2 pg. The MCHC [1] was 34.4%, the MCV [1] was 55.7 fL and the Mono [1] was 2.4%. It also gave a Neu [1] of 14.2%, a Plat [1] of 101 x10_4/uL and an RBC [1] of 801 x10_4/ul. For the same compound, the Ret [1] was 2%, the WBC [1] was 104.5 x10_2/uL and the KIDNEY_L [2] was 1.2 g. The KIDNEY_R [2] was 1.2 g, the KIDNEY_TOTAL [2] was 2.3 g and the KIDNEY_L [3] was 1.3 g. For the same compound, the KIDNEY_R [3] was 1.3 g, the KIDNEY_TOTAL [3] was 2.5 g and the KIDNEY_L [4] was 1.5 g. It also gave a KIDNEY_R [4] of 1.5 g, a KIDNEY_TOTAL [4] of 3 g and an ALP [2] of 901.6 IU/L. The ALT [2] was 27.8 IU/L, the AST [2] was 62.2 IU/L and the BUN [2] was 16 mg/dL. For the same compound, the CRE [2] was 0.4 mg/dL, the Ca [2] was 10.6 mg/dL and the Cl [2] was 102.6 meq/L. It also gave a DBIL [2] of 0.096 mg/dL, a GLC [2] of 219 mg/dL and an IP [2] of 7.3 mg/dL. It also gave a K [2] of 4.1 meq/L, an LDH [2] of 213.4 IU/L and a Na [2] of 140.4 meq/L. It also gave a PL [2] of 140.6 mg/dL, an RALB [2] of 3.2 g/dL and a TBIL [2] of 0.1 mg/dL. It also gave a TC [2] of 73.4 mg/dL, a TG [2] of 107.4 mg/dL and a TP [2] of 5.5 g/dL. The gamma-GTP [2] was 0.6 IU/L, the ALP [3] was 902.4 IU/L and the ALT [3] was 40.6 IU/L. For the same compound, the AST [3] was 76 IU/L, the BUN [3] was 16 mg/dL and the CRE [3] was 0.4 mg/dL. The Ca [3] was 10.6 mg/dL, the Cl [3] was 102.8 meq/L and the DBIL [3] was 0.1 mg/dL. It also gave a GLC [3] of 189.8 mg/dL, an IP [3] of 7.1 mg/dL and a K [3] of 4.2 meq/L. It also gave an LDH [3] of 244 IU/L, a Na [3] of 140.8 meq/L and a PL [3] of 153 mg/dL. It also gave an RALB [3] of 3.5 g/dL, a TBIL [3] of 0.1 mg/dL and a TC [3] of 71.8 mg/dL. For the same compound, the TG [3] was 133.6 mg/dL, the TP [3] was 5.8 g/dL and the gamma-GTP [3] was 0.6 IU/L. The ALP [4] was 733.8 IU/L, the ALT [4] was 33 IU/L and the AST [4] was 67.2 IU/L. It also gave a BUN [4] of 17 mg/dL, a CRE [4] of 0.5 mg/dL and a Ca [4] of 10.3 mg/dL. It also gave a Cl [4] of 102.6 meq/L, a DBIL [4] of 0.094 mg/dL and a GLC [4] of 232.8 mg/dL. The IP [4] was 6.7 mg/dL, the K [4] was 3.9 meq/L and the LDH [4] was 186.2 IU/L. The Na [4] was 141.2 meq/L, the PL [4] was 143.2 mg/dL and the RALB [4] was 3.4 g/dL. For the same compound, the TBIL [4] was 0.2 mg/dL, the TC [4] was 68.6 mg/dL and the TG [4] was 125 mg/dL. For the same compound, the TP [4] was 6.1 g/dL, the gamma-GTP [4] was 0.6 IU/L and the TERMINAL_BW (150 mg/kg, 72 h, dose level Middle, time 3 day) was 239.9 g.
